Here are results for 24 molecules from patent US20110046090A1 (BrainCells Inc., priority 2005, published 2011).

The structures appear in SMILES notation. Values joined by “and” are separate entries in the source; they are usually repeats but may differ in a detail not shown here. Equal entries are not always repeated. “Also recorded” adds a separate entry of the source. Where two headings read alike, the source gives them in different places.

For orientation: IC50 means the concentration needed to halve the response being measured. For orientation: EC50 means the concentration needed to bring the measured effect to its halfway point.

One data set addresses mGluR3 (Homo sapiens, UniProt Q14832). The following applies: cited from earlier work.
A further data set addresses mGluR2 (Homo sapiens, UniProt Q14416). The following applies: cited from earlier work.
The subject of data set [1] is human neural stem cells (hNSCs). Kind of data set: astrocyte differentiation of cultured human neural stem cells (GFAP staining). It counts as cell-based. Conditions: dose-response, normalized to astrocyte positive control.
Data set [2] has the same test system. Put plainly: toxicity on human neural stem cells (cell count, nuclear dye Hoechst 33342). In kind it is cell-based. The following applies: concentrations up to 100 μM; toxic doses fall below 80% of basal cell count. Here is the method:
Data is shown as a percent of the basal media cell count. Toxic doses typically fall below 80% of the basal cell count.
Experiments were carried out as described in Example 1, except that the positive control contained basal media only, and cells were stained with nuclear dye (Hoechst 33342).

Data set [3] shares this test system. Put plainly: growth of individual neurospheres comprising hNSCs (proliferation). Conditions: 1 μM, 10 μM and 30 μM; percent increase over basal neurosphere size as a function of time. In kind it is cell-based. The procedure:
Results are shown as a percent increase over the basal neurosphere size. Negative control (open circles) is basal media without compound, and positive control (open squares) is basal media with a known proliferative agent.
FIG. 7 is a time-response curve showing the effect of 1 μM (solid diamonds), 10 μM (solid squares), and 30 μM (solid circles) concentrations of baclofen on the growth of individual neurospheres comprising human neural stem cells (hNSCs) as a function of time. Results are shown as a percent increase over the basal neurosphere size. Negative control (open circle) is basal media without compound, and positive control (open square) is basal media with a known proliferative agent.

For data set [4] the test system is unchanged. Kind of data set: neuronal differentiation of cultured human neural stem cells (TUJ-1 staining), agents alone and in combination.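 On all read-outs here: cells kept in mitogen-free test media, with growth-factor-free basal medium as the negative control.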 Conditions: for effect on differentiation of hNSCs along a neuronal lineage, agent alone: dose-response, normalized to neuronal positive control; for EC50: % of neuronal positive control, basal media subtracted.
Procedure: The presence of synergy was determined by use of a combination index (CI). […] The CI is a quantitative measure of the nature of drug interactions, comparing the EC50's of two compounds, when each is assayed alone, to the EC50 of each compound when assayed in combination. The combination index (CI) is equal to the following formula:
where C1 and C2 are the concentrations of a first and a second compound, respectively, resulting in 50% activity in neuronal differentiation when assayed in combination; and IC1 and IC2 are the concentrations of each compound resulting in 50% activity when assayed independently.
Another data set deals with human mGlu2 receptors (Homo sapiens, UniProt Q14416). The following applies: in vitro; e.g., below about 10 nM, or below about 5 nM; cited from earlier work.
Sequence of human mGlu2 receptors (Q14416 19-872): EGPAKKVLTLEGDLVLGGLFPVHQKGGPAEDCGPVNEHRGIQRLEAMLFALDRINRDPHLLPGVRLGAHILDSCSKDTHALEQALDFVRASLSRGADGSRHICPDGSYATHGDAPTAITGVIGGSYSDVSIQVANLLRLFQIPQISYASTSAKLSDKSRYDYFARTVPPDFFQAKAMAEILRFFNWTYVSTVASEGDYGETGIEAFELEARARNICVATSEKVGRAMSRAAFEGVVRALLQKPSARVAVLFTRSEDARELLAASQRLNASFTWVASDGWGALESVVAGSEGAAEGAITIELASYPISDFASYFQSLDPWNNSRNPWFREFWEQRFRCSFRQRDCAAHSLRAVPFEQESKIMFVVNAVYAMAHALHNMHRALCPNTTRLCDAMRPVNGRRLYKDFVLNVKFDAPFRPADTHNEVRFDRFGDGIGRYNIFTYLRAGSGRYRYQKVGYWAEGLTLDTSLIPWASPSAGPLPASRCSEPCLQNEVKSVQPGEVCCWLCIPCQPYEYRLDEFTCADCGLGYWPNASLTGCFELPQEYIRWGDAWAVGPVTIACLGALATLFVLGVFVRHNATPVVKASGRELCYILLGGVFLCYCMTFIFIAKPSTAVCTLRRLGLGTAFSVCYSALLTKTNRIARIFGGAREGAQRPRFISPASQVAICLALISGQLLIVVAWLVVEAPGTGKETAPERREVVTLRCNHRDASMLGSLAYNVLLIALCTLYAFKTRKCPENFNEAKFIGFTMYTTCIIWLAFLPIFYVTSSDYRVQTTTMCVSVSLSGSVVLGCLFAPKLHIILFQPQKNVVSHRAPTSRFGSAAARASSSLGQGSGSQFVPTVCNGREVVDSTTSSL
Another data set addresses human mGlu3 receptors (Homo sapiens, UniProt Q14832). The following applies: in vitro; e.g., below about 10 nM, or below about 5 nM; cited from earlier work.
For data set [5] the following is noted: in vivo; cited from earlier work.
The conditions of data set [6]: cited from earlier work.
The next data set relates to Male Fisher F344 rats. Kind of data set: chronic dosing of rats: proliferation and differentiation of neural cells in the dentate gyrus (BrdU). Conditions: for increase in differentiation of neural progenitor cells into mature neurons, subgranular zone of dentate gyrus: chronic treatment. It counts as in vivo, rat. The procedure: Male Fisher F344 rats were injected with varying doses of baclofen as a test compound with vehicle, or vehicle only (negative control), once daily for twenty eight days. Rats were injected once daily with 100 mg/kg BrdU on days 9-14 of test compound administrations. Rats were then anesthetized and killed by transcardial perfusion of 4% paraformaldehyde at day 28. Brains were rapidly removed and stored in 4% paraformaldehyde for 24 hours and then equilibrated in phosphate buffered 30% sucrose. Free floating 40 micron sections were collected on a freezing microtome and stored in cryoprotectant. Antibodies against BrdU and cell types of interest (e.g., neurons, astrocytes, oligodendrocytes, endothelial cells) were used for detection of cell differentiation.
Briefly, tissues were washed (0.01 M PBS), endogenous peroxidase blocked with 1% hydrogen peroxide, and incubated in PBS (0.01 M, pH 7.4, 10% normal goat serum, 0.5% Triton X-100) for 2 hours at room temperature. Tissues were then incubated with primary antibody at 4° C. overnight. The tissues were rinsed in PBS followed by incubation with biotinylated secondary antibody (1 hour at room temperature). Tissues were further washed with PBS and incubated in avidin-biotin complex kit solution at room temperature for 1 hour. Various fluorophores linked to streptavidin were used for visualization. Tissues were washed with PBS, briefly rinsed in dH2O, serially dehydrated and coverslipped. Cell counting and unbiased stereology was limited to the hippocampal granule cell layer proper and one 50 um border along the hilar margin that includes the neurogenic subgranular zone. The proportion of BrdU cells displaying a lineage-specific phenotype was determined by scoring the co-localization of cell phenotype markers with BrdU using confocal microscopy. Split panel and z-axis analysis were used for all counting. All counts were performed using multi-channel configuration with a 40× objective and electronic zoom of 2. When possible, 100 or more BrdU-positive cells were scored for each marker per animal. Each cell was manually examined in first full “z”-dimension and only those cells for which the nucleus is unambiguously associated with the lineage-specific marker were scored as positive.
The total number of BrdU-labeled cells per hippocampal granule cell layer and subgranule zone were determined using diaminobenzidine stained tissues. Over-estimation was corrected using the Abercrombie method for nuclei with empirically determined average diameter of 13 um within a 40 um section.

A further data set has as its system Male Fischer F344 rats. Put plainly: novelty suppressed feeding antidepressant/anxiolytic assay. In kind it is in vivo, rat. The following applies: oral gavage once daily for 21 days, compounds given two hours prior to testing, 5.0 mg/kg each. The procedure: Male Fischer F344 rats were administered test compound(s)+vehicle or vehicle only (negative control) by oral gavage once daily for 21 days and evaluated for antidepressant/anxiolytic activity in the novelty suppressed feeding assay as follows. Twenty-four hours prior to behavioral testing, all food was removed from the home cage. At the time of testing a single pellet was placed in the center of a novel arena. Animals were placed in the corner of the arena and latency to eat the pellet was recorded. Compounds were administered two hours prior to testing. A decreased latency to eat the food pellet is indicative of both neurogenesis and antidepressant activity.

Setting [7] is: read-out: EC50 for neuronal differentiation, agent alone, compound run individually.
Setting [8] is: Homo sapiens, Neural stem cell, read-out: EC50 for neuronal differentiation, agent alone, compound run individually.

Sequence of mGluR2 (Q14416 19-872): as above
Sequence of mGluR3 (Q14832 23-879): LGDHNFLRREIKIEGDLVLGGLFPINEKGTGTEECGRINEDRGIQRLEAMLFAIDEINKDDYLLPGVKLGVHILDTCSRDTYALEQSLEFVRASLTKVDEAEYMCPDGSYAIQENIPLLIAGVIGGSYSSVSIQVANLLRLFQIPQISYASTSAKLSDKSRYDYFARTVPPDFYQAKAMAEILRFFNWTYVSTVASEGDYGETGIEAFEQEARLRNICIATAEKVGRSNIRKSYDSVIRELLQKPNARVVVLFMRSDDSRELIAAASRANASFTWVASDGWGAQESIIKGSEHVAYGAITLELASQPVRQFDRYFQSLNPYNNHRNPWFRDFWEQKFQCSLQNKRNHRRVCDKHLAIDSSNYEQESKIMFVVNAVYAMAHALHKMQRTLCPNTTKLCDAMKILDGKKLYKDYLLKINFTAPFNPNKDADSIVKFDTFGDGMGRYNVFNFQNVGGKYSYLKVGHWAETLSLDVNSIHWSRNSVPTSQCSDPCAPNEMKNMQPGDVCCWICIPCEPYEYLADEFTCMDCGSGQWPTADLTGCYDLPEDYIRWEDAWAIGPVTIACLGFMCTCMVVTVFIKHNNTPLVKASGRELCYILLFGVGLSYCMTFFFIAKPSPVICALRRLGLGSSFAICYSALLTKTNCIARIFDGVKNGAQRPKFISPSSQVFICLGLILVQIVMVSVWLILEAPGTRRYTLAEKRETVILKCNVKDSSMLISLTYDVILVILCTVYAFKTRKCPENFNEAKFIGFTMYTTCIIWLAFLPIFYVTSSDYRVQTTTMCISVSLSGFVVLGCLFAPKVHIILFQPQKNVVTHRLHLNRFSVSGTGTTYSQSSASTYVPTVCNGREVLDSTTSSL
Sequence of human mGlu3 receptors (Q14832 23-879): as above

Regarding `NC1(C(=O)O)CCc2cc(P(=O)(O)O)ccc21` (racemic) [APICA, (RS)-1-amino-5-phosphonoindan-1-carboxylic acid], the half-inhibitory concentration (IC50) at mGluR3 and at mGluR2 was approximately 30 µM each time.
Regarding `NCCCC(=O)O` [GABA], the “effect on differentiation of hNSCs along an astrocyte lineage” value in [1] is given as “no detectable effect; also recorded: did not exhibit a significant effect on astrocyte differentiation”. Besides, the “toxicity on hNSCs (cell count as percent of basal media cell count)” value in [2] is “Neither GABA nor baclofen exhibited toxicity; also recorded: did not exhibit significant toxicity”. In addition, the “effect on neurosphere growth / cell proliferation” value in data set [3] is reported as “positive effect on cell proliferation”. Further, in data set [4], the “effect on differentiation of hNSCs along a neuronal lineage, agent alone” value is “promoted neuronal differentiation; also recorded: significant enhancement”.
Regarding `N[C@@]1(C(=O)O)CO[C@H]2[C@H](C(=O)O)[C@H]21` [LY379268, (−)-2-Oxa-4-aminobicyclohexane-4,6-dicarboxylic acid], the EC50 result at human mGlu2 receptors and at human mGlu3 receptors was “low nanomolar range” throughout.
Regarding `Clc1ccc2c(c1)N=C(N1CCNCC1)c1ccccc1N2` [N-desmethylclozapine], in data set [4] (setting [7]), the EC50 was more than 100 µM.
Take `COCCCOc1cc(C[C@@H](C[C@H](N)[C@@H](O)C[C@H](C(=O)NCC(C)(C)C(N)=O)C(C)C)C(C)C)ccc1OC` [aliskiren, (2S,4S,5S,7S)-5-amino-N-(2-carbamoyl-2-methyl-propyl)-4-hydroxy-7-{[4-methoxy-3-(3-methoxypropoxy)phenyl]methyl}-8-methyl-2-propan-2-yl-nonanamide]: the plasma half-life result in data set [5] is “≈ 24 hours”. Also, the water solubility entry in data set [6] is “good water solubility”. Further, the concentration for a half-maximal effect (EC50) in [4] (setting [8]) is 2.79 µM.
`CCCCN(CC)c1nc(C)nc2c1c(C)c(C)n2-c1c(C)cc(C)cc1C` [antalarmin]: the EC50 in [4] (setting [8]) came to 2.33 µM.
The same measure, in the same setting: the result for `CC(C)c1c(C(=O)Nc2ccccc2)c(-c2ccccc2)c(-c2ccc(F)cc2)n1CC[C@@H](O)C[C@@H](O)CC(=O)O` [atorvastatin] reads 0.003 µM.
For the molecule `NCC(CC(=O)O)c1ccc(Cl)cc1` (stereo not drawn) [baclofen, Baclofen], the “increase in differentiation of neural progenitor cells into mature neurons, subgranular zone of dentate gyrus” value is 8% in the data set on Male Fisher F344 rats (0.75 mg/kg/day) and 5% in the data set with Male Fisher F344 rats (1.50 mg/kg/day). Further, the “neural cell proliferation within the dentate gyrus (mean number of BrdU-positive cells)” value in the data set with Male Fisher F344 rats (injection once daily for twenty eight days, 0.75 and 1.50 mg/kg) is reported as “dose-related increase in proliferation”. Moreover, the “neurogenic effects in vivo” value in the data set on Male Fisher F344 rats (once daily for twenty eight days) is given as “produces neurogenic effects with a rapid onset of action”. For the same molecule, the “effect on differentiation of hNSCs along an astrocyte lineage” value in [1] is on record as “did not exhibit a significant effect on astrocyte differentiation”; in data set [1] (listed as Baclofen), “no detectable effect”. The “toxicity on hNSCs (cell count as percent of basal media cell count)” value in data set [2] is “Neither GABA nor baclofen exhibited toxicity; also recorded: did not exhibit significant toxicity”. In addition, the “effect on neurosphere growth / cell proliferation” value in [3] is on record as “positive effect on cell proliferation”. Further, the EC50 stood at 3.84 µM in data set [4] (setting [8]) and 3.2 µM in data set [4] (setting [7]). Also, the “effect on differentiation of hNSCs along a neuronal lineage, agent alone” value is “significant enhancement” in [4] and “promoted neuronal differentiation” in data set [4] (listed as Baclofen).
In the case of `CCOC(=O)[C@H](CCc1ccccc1)N[C@H]1CCc2ccccc2N(CC(=O)O)C1=O` [benazepril], in data set [4] (setting [8]), the EC50 amounted to 5.5 µM.
With `CCOc1nc2cccc(C(=O)O)c2n1Cc1ccc(-c2ccccc2-c2nnn[nH]2)cc1` [candesartan], the “antidepressant and anxiolytic effects in novelty suppressed feeding” value in the data set on Male Fischer F344 rats is given as “no effects”. For the same molecule, the EC50 was 1.17 µM in data set [4] (setting [8]) and 1.33 µM in data set [4] (setting [7]).
In the case of `C[C@H](CS)C(=O)N1CCC[C@H]1C(=O)O` [captopril], the EC50 in [4] (setting [8]) was determined as 3.8 µM.
On the same count and under the same terms, the figure for `CCCCc1ncc(/C=C(\Cc2cccs2)C(=O)O)n1Cc1ccc(C(=O)O)cc1` [eprosartan] is 0.03 µM.
As to `O=C(O)[C@@H]1C[C@@H](C2CCCCC2)CN1C(=O)CP(=O)(O)CCCCc1ccccc1` [fosinoprilat], in data set [4] (setting [8]), the half-maximal effective concentration (EC50) came out at 3.3 µM.
As for `NCC1(CC(=O)O)CCCCC1` [gabapentin, Gabapentin], the EC50 in data set [4] (setting [7]) is 0.68 µM and 4.32 µM and 2.66 µM.
Turning to `NCCCC[C@H](N[C@@H](CCc1ccccc1)C(=O)O)C(=O)N1CCC[C@H]1C(=O)O` [lisinopril], the EC50 in [4] (setting [8]) is 3.8 µM.
Still for that read-out and setting: the figure for `CCCCc1nc(Cl)c(CO)n1Cc1ccc(-c2ccccc2-c2nn[nH]n2)cc1` [losartan] is 0.31 µM; for `NC(=O)C[S+]([O-])C(c1ccccc1)c1ccccc1` (stereo not drawn) [modafinil] it is 3.44 µM; for `O=C1CC[C@@]2(O)[C@H]3Cc4ccc(O)c5c4[C@@]2(CCN3CC2CC2)[C@H]1O5` [naltrexone] it is 7.3 µM.
Still for that read-out and setting: the figure for `CCC[C@H](N[C@@H](C)C(=O)N1[C@H](C(=O)O)C[C@@H]2CCCC[C@@H]21)C(=O)O` [perindoprilat, Perindoprilat] is 3.5 µM.
Regarding `CC(C)C[C@H](CN)CC(=O)O` [pregabalin, (S)-(+)-3-isobutylgaba], the “antidepressant and anxiolytic effects in novelty suppressed feeding” value in the data set on Male Fischer F344 rats is “no effects”. Besides, in data set [4] (setting [7]), the EC50 was 0.57 µM and 3.39 µM and 4.13 µM.
In the case of `C[C@H](N[C@@H](CCc1ccccc1)C(=O)O)C(=O)N1Cc2ccccc2C[C@H]1C(=O)O` [quinaprilat, Quinaprilat], the half-maximal effective concentration (EC50) in [4] (setting [8]) was 2.4 µM.
On to `NC(=O)c1ncn([C@@H]2O[C@H](CO)[C@@H](O)[C@H]2O)n1` [ribaviran, ribavirin], for which the EC50 in data set [4] (setting [8]) was 6.1 µM.
Regarding `CCCc1nc2c(C)cc(-c3nc4ccccc4n3C)cc2n1Cc1ccc(-c2ccccc2C(=O)O)cc1` [telmisartan], in [4] (setting [8]), the EC50 stood at 0.02 µM.
Same read-out and setting: the result for `COC(=O)[C@@H]1[C@H]2C[C@H]3c4[nH]c5ccccc5c4CCN3C[C@@H]2CC[C@@H]1O` [yohimbine] reads 1.96 µM.
